The values below come from paper PMC8550792, “Evolution of kinase polypharmacology across HSP90 drug discovery” (Cell Chemical Biology, 2021).

Experiment in all cases: biochemical
Holding throughout (format): biochemical

The target of assay [1] is T1, 382 unique human kinases (Homo sapiens, UniProt Q8N4C8).
T1 construct: purchased Reaction Biology (HotSpot contract assay)
As to conditions: MINK/MINK1, 10 uM; for remaining activity at 10 µM: read-out: % Enzyme Activity (relative to DMSO controls).

The target in assay [2] is T2, 382 unique human kinases (Homo sapiens, UniProt Q02779).
T2 construct: purchased Reaction Biology (HotSpot contract assay)
T2 sequence (Q02779 whole entry): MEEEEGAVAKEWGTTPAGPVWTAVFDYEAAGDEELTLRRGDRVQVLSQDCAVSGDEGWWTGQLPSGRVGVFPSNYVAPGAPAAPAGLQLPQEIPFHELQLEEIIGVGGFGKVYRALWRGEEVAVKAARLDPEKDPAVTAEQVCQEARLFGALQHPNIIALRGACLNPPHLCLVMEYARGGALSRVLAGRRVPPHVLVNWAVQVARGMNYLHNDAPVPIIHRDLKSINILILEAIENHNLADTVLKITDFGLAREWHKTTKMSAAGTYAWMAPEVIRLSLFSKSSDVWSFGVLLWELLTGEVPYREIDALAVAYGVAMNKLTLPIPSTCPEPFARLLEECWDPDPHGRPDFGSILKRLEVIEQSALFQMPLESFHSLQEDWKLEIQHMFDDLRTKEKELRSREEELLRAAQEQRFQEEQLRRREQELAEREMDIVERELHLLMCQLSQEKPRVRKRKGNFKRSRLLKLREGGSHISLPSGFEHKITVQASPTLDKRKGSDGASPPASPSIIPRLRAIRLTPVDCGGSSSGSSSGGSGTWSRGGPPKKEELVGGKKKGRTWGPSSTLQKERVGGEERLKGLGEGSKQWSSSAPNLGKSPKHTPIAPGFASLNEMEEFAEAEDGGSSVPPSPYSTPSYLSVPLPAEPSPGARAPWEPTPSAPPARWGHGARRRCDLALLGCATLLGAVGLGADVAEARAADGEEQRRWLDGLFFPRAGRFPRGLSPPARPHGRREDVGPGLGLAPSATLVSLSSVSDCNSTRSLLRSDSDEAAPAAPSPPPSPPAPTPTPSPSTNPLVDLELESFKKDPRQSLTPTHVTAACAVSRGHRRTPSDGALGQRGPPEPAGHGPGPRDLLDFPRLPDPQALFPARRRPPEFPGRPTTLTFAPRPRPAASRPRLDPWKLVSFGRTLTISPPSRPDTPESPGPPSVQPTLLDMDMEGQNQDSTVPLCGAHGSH
As to conditions: kinase MLK2/MAP3K10, compound 10 uM; for remaining activity at 10 µM: read-out: % Enzyme Activity (relative to DMSO controls).

The target in assay [3] is T3, 382 unique human kinases (Homo sapiens, UniProt Q8TD19).
T3 construct: purchased Reaction Biology (HotSpot contract assay)
T3 sequence (Q8TD19 1-979): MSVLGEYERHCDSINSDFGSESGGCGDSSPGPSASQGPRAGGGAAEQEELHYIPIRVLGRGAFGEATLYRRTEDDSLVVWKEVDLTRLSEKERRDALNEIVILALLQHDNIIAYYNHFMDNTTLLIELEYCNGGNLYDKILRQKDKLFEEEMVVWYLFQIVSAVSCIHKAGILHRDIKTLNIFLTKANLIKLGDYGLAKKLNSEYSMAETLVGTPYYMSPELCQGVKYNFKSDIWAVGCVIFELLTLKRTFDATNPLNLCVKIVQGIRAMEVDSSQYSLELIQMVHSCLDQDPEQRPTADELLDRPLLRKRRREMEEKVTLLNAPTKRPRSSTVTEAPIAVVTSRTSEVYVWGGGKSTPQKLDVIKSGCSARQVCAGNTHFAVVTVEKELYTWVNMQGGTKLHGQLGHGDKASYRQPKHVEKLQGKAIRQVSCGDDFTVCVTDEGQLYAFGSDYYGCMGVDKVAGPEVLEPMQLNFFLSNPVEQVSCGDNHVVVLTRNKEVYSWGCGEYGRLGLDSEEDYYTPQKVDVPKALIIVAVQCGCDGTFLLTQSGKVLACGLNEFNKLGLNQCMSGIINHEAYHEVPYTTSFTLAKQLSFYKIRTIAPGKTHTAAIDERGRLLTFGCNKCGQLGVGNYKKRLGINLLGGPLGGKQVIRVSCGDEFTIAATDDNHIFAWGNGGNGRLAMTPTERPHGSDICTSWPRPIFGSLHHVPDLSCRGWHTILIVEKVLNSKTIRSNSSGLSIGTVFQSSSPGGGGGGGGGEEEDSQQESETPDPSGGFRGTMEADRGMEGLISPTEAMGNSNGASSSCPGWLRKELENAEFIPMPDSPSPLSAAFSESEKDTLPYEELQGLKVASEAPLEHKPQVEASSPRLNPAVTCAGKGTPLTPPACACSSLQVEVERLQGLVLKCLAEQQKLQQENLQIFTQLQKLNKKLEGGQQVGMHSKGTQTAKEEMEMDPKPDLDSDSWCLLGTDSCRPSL
The note with it: NEK9, 10 uM; for remaining activity at 10 µM: read-out: % Enzyme Activity (relative to DMSO controls).

Assay [4] deals with T4, 382 unique human kinases (Homo sapiens, UniProt Q92630).
T4 construct: purchased Reaction Biology (HotSpot contract assay)
T4 sequence (Q92630 1-601): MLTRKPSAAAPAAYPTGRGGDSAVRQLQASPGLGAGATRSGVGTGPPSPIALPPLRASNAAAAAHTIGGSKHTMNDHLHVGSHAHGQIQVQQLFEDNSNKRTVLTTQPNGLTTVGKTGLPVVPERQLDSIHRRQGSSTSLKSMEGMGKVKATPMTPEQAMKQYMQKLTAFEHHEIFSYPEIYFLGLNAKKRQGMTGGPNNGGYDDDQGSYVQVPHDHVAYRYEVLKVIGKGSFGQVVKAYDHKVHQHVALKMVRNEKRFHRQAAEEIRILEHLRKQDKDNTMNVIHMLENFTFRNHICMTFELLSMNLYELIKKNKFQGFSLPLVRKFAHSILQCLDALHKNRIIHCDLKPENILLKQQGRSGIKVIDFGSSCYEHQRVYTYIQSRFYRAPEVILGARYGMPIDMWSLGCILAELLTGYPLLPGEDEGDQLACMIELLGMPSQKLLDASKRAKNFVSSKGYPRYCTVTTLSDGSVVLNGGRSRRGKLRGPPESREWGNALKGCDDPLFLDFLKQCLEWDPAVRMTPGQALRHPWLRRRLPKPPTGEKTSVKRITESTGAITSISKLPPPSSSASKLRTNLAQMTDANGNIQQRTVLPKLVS
As to conditions: DYRK2, 10 uM; for remaining activity at 10 µM: read-out: % Enzyme Activity (relative to DMSO controls).

Assay [5] has as its target T5, 382 unique human kinases (Homo sapiens, UniProt Q16832).
T5 construct: purchased Reaction Biology (HotSpot contract assay)
T5 sequence (Q16832 22-855): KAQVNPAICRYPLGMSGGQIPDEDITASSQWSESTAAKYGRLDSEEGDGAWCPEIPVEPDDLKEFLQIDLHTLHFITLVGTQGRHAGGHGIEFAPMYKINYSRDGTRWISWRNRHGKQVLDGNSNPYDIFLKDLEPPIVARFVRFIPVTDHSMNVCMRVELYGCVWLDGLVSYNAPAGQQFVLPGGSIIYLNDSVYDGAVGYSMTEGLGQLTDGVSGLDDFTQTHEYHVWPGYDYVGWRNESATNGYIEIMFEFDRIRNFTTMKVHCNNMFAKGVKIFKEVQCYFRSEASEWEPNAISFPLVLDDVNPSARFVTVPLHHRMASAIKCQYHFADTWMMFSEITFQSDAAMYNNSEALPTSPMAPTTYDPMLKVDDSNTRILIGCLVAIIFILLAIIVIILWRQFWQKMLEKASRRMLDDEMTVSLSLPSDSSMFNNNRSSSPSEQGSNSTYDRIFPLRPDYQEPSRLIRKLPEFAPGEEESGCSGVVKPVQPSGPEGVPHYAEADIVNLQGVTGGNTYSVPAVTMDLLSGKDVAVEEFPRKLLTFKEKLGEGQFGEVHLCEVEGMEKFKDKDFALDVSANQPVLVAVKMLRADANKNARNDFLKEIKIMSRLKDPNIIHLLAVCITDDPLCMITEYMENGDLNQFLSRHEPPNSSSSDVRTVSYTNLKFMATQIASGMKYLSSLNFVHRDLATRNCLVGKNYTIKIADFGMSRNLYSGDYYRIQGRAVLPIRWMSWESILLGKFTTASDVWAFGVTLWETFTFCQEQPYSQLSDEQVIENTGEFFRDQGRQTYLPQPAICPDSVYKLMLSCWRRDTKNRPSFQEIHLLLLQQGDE
The note with it: DDR2, [ATP] 5 µM.

The target of assay [6] is T6, 382 unique human kinases (Homo sapiens, UniProt P07949, G691S).
T6 construct: purchased Reaction Biology (HotSpot contract assay)
T6 sequence (P07949 29-1114 G691S): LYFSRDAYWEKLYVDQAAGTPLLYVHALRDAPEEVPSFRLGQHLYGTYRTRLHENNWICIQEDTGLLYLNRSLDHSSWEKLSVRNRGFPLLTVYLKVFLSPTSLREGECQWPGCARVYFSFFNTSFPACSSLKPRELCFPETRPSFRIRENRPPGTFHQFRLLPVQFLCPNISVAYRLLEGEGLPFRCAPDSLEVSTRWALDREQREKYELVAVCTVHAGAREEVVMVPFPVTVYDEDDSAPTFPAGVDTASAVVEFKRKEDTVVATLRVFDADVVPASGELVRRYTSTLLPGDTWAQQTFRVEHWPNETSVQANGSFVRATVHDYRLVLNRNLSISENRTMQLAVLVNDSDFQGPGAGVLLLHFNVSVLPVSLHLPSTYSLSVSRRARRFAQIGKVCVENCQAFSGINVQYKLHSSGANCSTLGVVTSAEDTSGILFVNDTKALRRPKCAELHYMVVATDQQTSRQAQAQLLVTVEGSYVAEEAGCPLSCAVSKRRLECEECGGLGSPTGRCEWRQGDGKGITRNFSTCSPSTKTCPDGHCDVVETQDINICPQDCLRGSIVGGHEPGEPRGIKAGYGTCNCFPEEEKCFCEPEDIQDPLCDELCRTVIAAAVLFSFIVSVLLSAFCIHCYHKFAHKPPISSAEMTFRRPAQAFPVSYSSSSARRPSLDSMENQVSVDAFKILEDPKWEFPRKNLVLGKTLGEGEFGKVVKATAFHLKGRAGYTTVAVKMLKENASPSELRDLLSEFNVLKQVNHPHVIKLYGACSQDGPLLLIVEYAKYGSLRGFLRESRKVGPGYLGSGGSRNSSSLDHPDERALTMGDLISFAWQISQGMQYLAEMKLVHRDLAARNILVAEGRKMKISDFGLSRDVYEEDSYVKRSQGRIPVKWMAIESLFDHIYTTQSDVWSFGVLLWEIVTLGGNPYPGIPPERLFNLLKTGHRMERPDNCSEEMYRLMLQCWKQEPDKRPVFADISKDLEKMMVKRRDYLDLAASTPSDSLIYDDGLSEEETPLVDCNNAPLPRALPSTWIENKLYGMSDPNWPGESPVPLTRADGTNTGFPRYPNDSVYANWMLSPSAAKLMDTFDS
The note with it: RET (G691S), 10 uM; for remaining activity at 10 µM: read-out: % Enzyme Activity (relative to DMSO controls).

For assay [7], the target named is T7, 382 unique human kinases (Homo sapiens, UniProt P22455, V550E).
T7 construct: purchased Reaction Biology (HotSpot contract assay)
T7 sequence (P22455 22-802 V550E): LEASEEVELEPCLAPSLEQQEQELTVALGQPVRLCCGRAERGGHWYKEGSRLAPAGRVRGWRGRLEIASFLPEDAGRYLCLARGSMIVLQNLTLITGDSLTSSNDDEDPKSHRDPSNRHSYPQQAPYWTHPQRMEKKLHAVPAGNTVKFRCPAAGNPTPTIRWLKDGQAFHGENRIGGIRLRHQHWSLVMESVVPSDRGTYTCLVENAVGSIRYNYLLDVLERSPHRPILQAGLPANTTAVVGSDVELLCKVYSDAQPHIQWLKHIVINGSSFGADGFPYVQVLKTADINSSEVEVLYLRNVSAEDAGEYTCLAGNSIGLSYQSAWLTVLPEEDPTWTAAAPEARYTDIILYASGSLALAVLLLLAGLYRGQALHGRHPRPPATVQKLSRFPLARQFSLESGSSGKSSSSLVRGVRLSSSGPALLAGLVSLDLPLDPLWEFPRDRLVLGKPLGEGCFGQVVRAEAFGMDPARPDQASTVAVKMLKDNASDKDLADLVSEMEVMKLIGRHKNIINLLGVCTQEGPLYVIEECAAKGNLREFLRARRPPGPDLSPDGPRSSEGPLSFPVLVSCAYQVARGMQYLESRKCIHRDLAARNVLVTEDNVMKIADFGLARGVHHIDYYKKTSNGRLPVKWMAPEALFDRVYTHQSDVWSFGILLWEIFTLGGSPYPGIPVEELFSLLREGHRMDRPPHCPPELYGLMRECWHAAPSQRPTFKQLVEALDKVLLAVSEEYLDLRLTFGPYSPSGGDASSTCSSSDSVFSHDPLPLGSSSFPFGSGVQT
As to conditions: FGFR4 (V550E), 10 uM; for remaining activity at 10 µM: read-out: % Enzyme Activity (relative to DMSO controls).

Assay [8] deals with T8, 382 unique human kinases (Homo sapiens, UniProt Q02763, Y897S).
T8 construct: purchased Reaction Biology (HotSpot contract assay)
T8 sequence (Q02763 23-1124 Y897S): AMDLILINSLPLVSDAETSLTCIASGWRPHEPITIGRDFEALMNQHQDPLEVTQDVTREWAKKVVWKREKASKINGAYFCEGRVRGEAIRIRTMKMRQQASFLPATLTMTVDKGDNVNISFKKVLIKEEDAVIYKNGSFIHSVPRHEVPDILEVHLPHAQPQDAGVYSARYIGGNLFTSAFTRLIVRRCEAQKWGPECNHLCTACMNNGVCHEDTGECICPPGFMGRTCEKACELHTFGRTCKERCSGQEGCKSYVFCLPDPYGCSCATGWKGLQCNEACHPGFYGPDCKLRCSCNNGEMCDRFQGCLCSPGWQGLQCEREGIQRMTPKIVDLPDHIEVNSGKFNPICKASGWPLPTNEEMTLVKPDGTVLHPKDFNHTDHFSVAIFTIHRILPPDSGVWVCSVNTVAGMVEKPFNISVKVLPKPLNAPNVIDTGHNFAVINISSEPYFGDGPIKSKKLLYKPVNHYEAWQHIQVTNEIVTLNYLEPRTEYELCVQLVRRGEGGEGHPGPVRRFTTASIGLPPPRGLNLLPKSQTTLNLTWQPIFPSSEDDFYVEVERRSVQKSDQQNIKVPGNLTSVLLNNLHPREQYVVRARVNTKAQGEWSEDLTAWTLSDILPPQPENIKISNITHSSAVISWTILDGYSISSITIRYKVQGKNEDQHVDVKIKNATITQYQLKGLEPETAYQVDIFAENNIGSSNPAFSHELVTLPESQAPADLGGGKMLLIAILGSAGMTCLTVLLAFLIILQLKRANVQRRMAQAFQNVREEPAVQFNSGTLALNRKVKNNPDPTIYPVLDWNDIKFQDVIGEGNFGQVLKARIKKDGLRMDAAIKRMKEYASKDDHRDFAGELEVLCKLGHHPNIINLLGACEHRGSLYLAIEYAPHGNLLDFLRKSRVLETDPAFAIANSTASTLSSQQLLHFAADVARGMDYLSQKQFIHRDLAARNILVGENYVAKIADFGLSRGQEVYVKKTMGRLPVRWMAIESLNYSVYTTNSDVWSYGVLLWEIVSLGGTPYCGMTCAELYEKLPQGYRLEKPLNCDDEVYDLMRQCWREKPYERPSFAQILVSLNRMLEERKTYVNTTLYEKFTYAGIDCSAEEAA
As to conditions: TIE2 (Y897S), 10 uM; for remaining activity at 10 µM: read-out: % Enzyme Activity (relative to DMSO controls).

[9] abbreviates: compound 10 uM, read-out: % Enzyme Activity (relative to DMSO controls).

Take `CC(C)c1cc(-c2n[nH]c(=O)n2-c2ccc3c(ccn3C)c2)c(O)cc1O` [Ganetespib (STA9090)]: the remaining activity at 10 µM at 382 unique human kinases [1] was found to be 73.6%; at 382 unique human kinases [2], 98.6%; on 382 unique human kinases [3], 62.5%; on 382 unique human kinases [4], 75%.
Consider `CC(C)c1cc(-c2n[nH]c(=O)n2-c2ccc3c(ccn3C)c2)c(O)cc1O` [Ganetespib], for which, at 382 unique human kinases [5] (compound 1 uM, read-out: % Enzyme Activity (relative to DMSO controls)), the remaining activity at 1 µM came to 51.9%. Moreover, the remaining activity at 10 µM at 382 unique human kinases [5] (setting [9]) is 14.5%; on 382 unique human kinases [6], 98.6%; at 382 unique human kinases [7], 96.9%; at 382 unique human kinases [8], 98.7%.
For `CCNC(=O)c1noc(-c2cc(C(C)C)c(O)cc2O)c1-c1ccc(CN2CCOCC2)cc1` [Luminespib (AUY-922)], the “% Enzyme Activity (relative to DMSO controls)” value on 382 unique human kinases [1] was determined as 85.21%; at 382 unique human kinases [2] it was 89.74%; on 382 unique human kinases [3] it was 72.56%; on 382 unique human kinases [4], 98.38%. Moreover, the remaining activity at 10 µM came to 86.4% at 382 unique human kinases [1], 91.1% on 382 unique human kinases [2], 73% at 382 unique human kinases [3] and 99.7% at 382 unique human kinases [4].
As for `CCNC(=O)c1noc(-c2cc(C(C)C)c(O)cc2O)c1-c1ccc(CN2CCOCC2)cc1` [Luminespib], the “% Enzyme Activity (relative to DMSO controls)” value at 382 unique human kinases [5] (compound 10 uM) was found to be 105.89%; at 382 unique human kinases [6], 100.12%; on 382 unique human kinases [7] it was 100.42%; on 382 unique human kinases [8] it was 116.81%. In addition, the remaining activity at 10 µM on 382 unique human kinases [5] (setting [9]) was found to be 107%; on 382 unique human kinases [6] it was 101%; on 382 unique human kinases [7], 101%; on 382 unique human kinases [8], 117%.
